In patent US20120265121A1, “PHTHALOCYANINE-BASED ANTIFUNGAL AGENTS” (CASE WESTERN RESERVE UNIVERSITY, priority 2011, published 2012):

Columns and labels:
[1] = system: C. albicans (strain SC-5134); assay: Colony forming unit (CFU) phototoxicity assay; format: cell-based, Candida albicans
Description: Colonies Formation Assay: Briefly, the 1 ml of each treatment condition was diluted into 1:10,000, 1:50,000 or 1:100,000 and plated 100 μL onto Sabouraud dextrose agar plate (Becton Dickinson, New Jersey, USA). All plates were incubated at 37° C. and colonies were imaged and counted the following day for each plate/condition.
(§1) Pc 4-Photodynamic Treatment Conditions: The phthalocyanine photosensitizer Pc 4 was kindly provided by Dr. Malcolm E. Kenney (Department of Chemistry, Case Western Reserve University, Cleveland, Ohio, USA). Stock solutions (0.5 mM) of Pc 4 were prepared in N′,N′-dimethylformamide (DMF, ThermoFisher, Waltham, Mass., USA) and stored at 4° C. in the dark. C. albicans cultures were incubated with Pc 4 concentrations ranging from 0.1 to 1.0 μM in 1× PBS containing 10% FBS for at least 1 hr at 37° C. in the dark and subsequently irradiated with red light using a light-emitting diode array (EFOS, Mississauga, Ontario, Canada) at a fluence ranging from 1.0 to 2.0 J/cm^2 (1.0 mW/cm^2, λmax ˜670-675 nm) at room temperature.
Colony forming unit (CFU) phototoxicity assay: CFU assay was done as described by Chandra et al. with minor modifications. […] After 24 hours, colonies were counted by eye, and all the percentage of surviving cells from the Pc 4-PDT cultures was normalized against that of cultures exposed to Pc 4 or light alone. […]

[2] = system: C. albicans (strain SC-5134); assay: FUN-1 fluorescence metabolic activity assay (confocal); format: cell-based, Candida albicans; conditions: 1.0 μM Pc 4, 2.0 J/cm^2, vs cells exposed to Pc 4 but not irradiated
Description: as §1, with “temperature. […] The absorbance of the resulting orange solution was measured using a spectrophotometer (Spectronic Genesys 5, Analytical Instrument, Golden Valley, Minn., USA) at 492 nm. […] FUN-1 fluorescence was excited using solid state diode lasers (488 nm) and collected with a 580-650 nm band pass emission filter.” for “temperature.”

[3] = system: C. albicans (strain SC-5134); assay: Chromatin condensation by confocal microscopy; format: cell-based, Candida albicans; conditions: highest dose of Pc 4-PDT or peroxide, 24 hr after treatment
Description: Confocal Microscopy: To investigate the uptake and localization of Pc 4, cells in standard growth medium plus 10% Fetal Bovine Serum (FBS) were loaded with 0.2 μM Pc 4 and incubated for 16 to 18 hr. Thirty minutes prior to imaging Pc 4, 50 nM MitoTracker Red (Invitrogen, Carlsbad, Calif., USA) or 50 μg/mL AlexaFluor 488-conjugated Concanavalin (Con) A (Invitrogen, Carlsbad, Calif., USA) and/or 10 μg/mL Hoechst 33342 (Invitrogen, Carlsbad, Calif., USA) was loaded onto cells. Five to 10 μL of stained cells were placed on a slide with a glass coverslip and all images acquired using an UltraVIEW VoX spinning disk confocal system (PerkinElmer, Waltham, Mass., USA), which was mounted on a Leica DMI6000B microscope (Leica Microsystems, Inc., Bannockburn, Ill., USA) equipped with a HCX PL APO 100×/1.4 oil immersion objective. Confocal images of Pc 4 fluorescence, MitoTracker Red, ConA (or FITC-labeled Annexin V) and Hoechst 33342 were collected using solid-state diode lasers, with 640-nm, 561-nm, 488-nm and 405-nm excitation light, respectively, and with appropriate emission filters.

T. rubrum = assay: XTT reduction assay after Pc 4-PDT; format: cell-based, Trichophyton rubrum
Description: Terbinafine sensitive (23013) and resistant (MRL666) strains of T. rubrum were grown onto Sabouraud potato agar plate for at least 24 hours at 28° C. Microconidia were separated from most of the hyphae form before treating with Pc 4-PDT.

[4] = format: in vitro ADME, human
From the text: Because drug penetration into and through the nail plate is always a challenge in the treatment of onychomycosis, the nail absorption of topically applied Pc 4 was also investigated. […] Considering that these samples were healthy nails, it appears that diseased/dystrophic nails whose barrier functions have been compromised may even have better Pc 4 absorption. Nonetheless, in the clinical protocol, the inventors specified that Pc 4 will be applied not only on the nail plate but also on the exposed subungual tissue and periungual area.

## CN(C)CCC[Si](C)(C)O[Si]1(O)n2c3c4ccccc4c2N=C2N=C(N=c4c5ccccc5c(n41)=NC1=NC(=N3)c3ccccc31)c1ccccc12 (stereo not shown) [Pc 4, HOSiPcOSi(CH3)2(CH2)3N(CH3)2]
[1]; 1.0 μM Pc 4, light at 2.0 J/cm^2 (670-675 nm)
  cell killing / reduction of cell survival (CFU): 4 logs
[1]; highest dose of Pc 4, no light, compared to untreated cells
  effect of photosensitizer alone on cell proliferation and cell death: neither the highest dose of photosensitizer alone nor light alone affected cell proliferation and cell death
[2]
  FUN-1 fluorescence: much reduced FUN-1 fluorescence
[3]
  chromatin condensation: detected
T. rubrum; terbinafine resistant strain MRL666
  metabolic activity (XTT): attenuates following Pc 4-PDT
T. rubrum; terbinafine sensitive strain 23013
  metabolic activity (XTT): attenuates following Pc 4-PDT
[4]
  Pc 4 fluorescence within the nail plate: significant amount of Pc 4 fluorescence can be detected within the nail plate
